Laboratory results: patent US20080194637A1, “Small organic molecule regulators of cell proliferation” (Curis, Inc., priority 2006, published 2008)
Where a name gives a salt, the structure may show the parent alone. Read-outs that look alike come from different tables or passages of the source.

How the values were obtained:
[1] = tested on: C57BL/6 male mice with DHT pellet; assay: DHT-induced alopecia mouse model of male pattern baldness; format: in vivo; settings: C57BL/6 male mice with subcutaneous DHT pellet (2.5 mg 21 day), dosed topically once, visually graded for hair regrowth
Protocol: (§1) A mouse model of male pattern baldness is used to investigate the effectiveness of the present compounds for growing hair. Agonists for the sonic hedgehog pathway that act by binding and activating Smoothened were tested in a formulation of 50:30:20 PG:EtOH:water or 5:95 DMSO:acetone vehicle. C57BL/6 male mice (48-52 days old on arrival) from Charles River Labs were used on the study. The mice were housed and cared for according to established procedures. Food and water were ad libitum. On Day 0, the mice were shaved on their lower back, an area of ˜1.5 inches×˜2 inches with Wahl clippers using a surgical blade. On day −3, the mice were anesthetized with isoflurane, their back was rinsed with a pad of 70% ethanol, a placebo pellet or a DHT pellet (2.5 mg 21 day pellet) were implanted subcutaneously between the shoulder blades with a 10 gauge trochar. DHT pellet transplantation results in maintenance of existing hair follicles in the resting (telogen) phase. The hole was stapled with a sterile autoclip and the mice were returned to their cage after awaking. The mice were dosed topically once and visually graded daily, except weekends, for melanogenesis and hair regrowth of fur in the dosed area (Table 4).
In the absence of treatment with the present compounds, the follicles remain in telogen rather than following the normal time course of the mouse hair cycle.

C57BL/6 male mice = assay: C57BL/6 hair growth after single topical dose; format: in vivo, mouse; settings: shaved lower back, dosed topically once, visually graded for melanogenesis and hair regrowth
Protocol: as §1

[2] = tested on: sonic hedgehog pathway, HepM human embryonic palatal mesenchymal cells; assay: Human hedgehog reporter assay HEPM-GliLuc (HGL); format: cell-based; settings: HepM human embryonic palatal mesenchymal cells, gli-luciferase reporter, Table 1
Excerpt: (§2) Mouse (TM3: mouse Leydig cells; S12: mouse embryonic mesenchymal cells) and human (Daoy: human medulloblastoma cell; HepM: human embryonic palatal mesenchymal cell) cell lines are used to screen small molecules for their ability to modulate the activity of the sonic hedgehog pathway (Table 1, Table 2, and Table 3). Stable hedgehog pathway reporter cell lines are established by specific antibiotic selection following transfection of a reporter plasmid containing a luciferase gene located directly downstream from the gli promoter. Consequently, any observable changes in cellular luciferase activity may be attributed to changes in sonic hedgehog pathway activity in mouse and human cells, respectively, since gli is the major by-product of this pathway. To calculate activity, we generate an eleven point dose curve for each compound using 1:3 dilutions in 96 well assay plates. Each plate tested also contains low and high control to establish maximal pathway activation so to establish/compare a percentage activation of each tested compound (AMAX) on respective plates. Also we calculate EC50 values, or a concentration where the pathway will be exactly 50% activated, for each tested compound to determine potency. In these cell lines, compounds that register >20% AMAX values are considered active.
(§3) Stable hedgehog pathway reporter cell lines are established following specific antibiotic selection following transfection of a reporter plasmid In short, typically cells are plated in MicroTiter-plates at 10,000-20,000 cells per well, in growth media (containing 10%-20% FBS). After 48-72 hrs (HGL and DGL respectively) the media in the assay plates is switched to low-serum containing media (0.5% FBS). At that time compounds are added (at 1-5 μM) to the assay plates, in the presence or absence of hedgehog protein (octyl-modified version; 1-5 ng/ml). After another 24 hrs of incubation, the media from the assay plates is discarded and replaced with luciferase assay-mix. Subsequently, plates are incubated at RT for ˜15-30 mins and then read in a luminometer. [note: addition of the Hedgehog protein, although not critical, will sensitize the assay allowing the identification of weak actives].

[3] = tested on: sonic hedgehog pathway, S12 mouse embryonic mesenchymal cells; assay: Hedgehog pathway Gli-luciferase reporter assay in S12 cells; format: cell-based
Excerpt: as §2, §3

[4] = tested on: sonic hedgehog pathway, Daoy human medulloblastoma cells; assay: Human hedgehog reporter assay Daoy-GliLuc (DGL); format: cell-based
Excerpt: as §2, §3

[5] = tested on: sonic hedgehog pathway, TM3 mouse Leydig cells; assay: Hedgehog pathway Gli-luciferase reporter assay in TM3 cells; format: cell-based; settings: Table 1
Excerpt: as §2, §3

[6] = S12 mouse embryonic mesenchymal cells, Table 1, read-out: S12 Avg. EC50
[7] = Daoy human medulloblastoma cells, gli-luciferase reporter, Table 1, read-out: Daoy Avg. EC50
[8] = S12 mouse cells, Table 2, read-out: Mouse S12 Avg. EC50
[9] = Daoy human cells, Gli-Luc, Table 2, read-out: Human Daoy (Gli-Luc) Avg. EC50

Compound	Androgenetic Alopecia [1]	C57BL/6 Hair Growth (C57BL/6 male mice)	also measured
CN[C@H]1CC[C@H](N(Cc2cc(-c3ccccc3)ccc2OC)C(=O)c2sc3ccccc3c2Cl)CC1	yes	yes	–
CN[C@H]1CC[C@H](N(Cc2cc(-c3cc(C)nc(C)c3)ccc2OC)C(=O)c2sc3ccccc3c2Cl)CC1	yes	yes	–
CN[C@H]1CC[C@H](N(Cc2cc(-c3ccc(C(N)=O)cc3)ccc2OC)C(=O)c2sc3c(F)ccc(F)c3c2Cl)CC1	yes	yes	–
CN[C@H]1CC[C@H](N(Cc2cc(-c3ccnc(C)c3)ccc2OC)C(=O)c2sc3ccccc3c2Cl)CC1	yes	yes	–
CN[C@H]1CC[C@H](N(Cc2cc(-c3ccc(N)nc3)ccc2OC)C(=O)c2sc3cccc(F)c3c2Cl)CC1	yes	yes	–
CN[C@H]1CC[C@H](N(Cc2cc(-c3ccc(S(C)(=O)=O)cc3)ccc2OC)C(=O)c2sc3ccccc3c2Cl)CC1	yes	yes	–
CN[C@H]1CC[C@H](N(Cc2cc(-c3ccnc(C(=O)N(C)C)c3)ccc2OC)C(=O)c2sc3c(F)ccc(F)c3c2Cl)CC1	yes	yes	–
CNC1CCC(N(Cc2cc(-c3ccncc3)ccc2OC)C(=O)c2sc3ccccc3c2Cl)CC1 (centres unmarked)	yes	yes	–
CN[C@H]1CC[C@H](N(Cc2cc(-c3ccc(NS(C)(=O)=O)nc3)ccc2OC)C(=O)c2sc3c(F)ccc(F)c3c2Cl)CC1	–	yes	–
CCOc1ccc(-c2ccc(C#N)cc2)cc1CN(C(=O)c1sc2ccccc2c1Cl)[C@H]1CC[C@H](NC)CC1	–	yes	–
CN[C@H]1CC[C@H](N(Cc2cc(-c3ccnc(C(=O)OC)c3)ccc2OC)C(=O)c2sc3c(F)ccc(F)c3c2Cl)CC1	yes	yes	–
CN[C@H]1CC[C@H](N(Cc2cc(-c3ccnc(C(=O)O)c3)ccc2OC)C(=O)c2sc3c(F)ccc(F)c3c2Cl)CC1	–	no	–
CN[C@H]1CC[C@@H](N(Cc2cc(-c3cccnc3)ccc2OC)C(=O)c2sc3cccc(F)c3c2Cl)CC1 [360 (R16), 3-Chloro-4-fluoro-benzo[b]thiophene-2-carboxylic acid (2-methoxy-5-pyridin-3-yl-benzyl)-(4-methylamino-cyclohexyl)-amide dihydrochloride]	–	–	EC50 [2]: < 0.05 µM; EC50 [3, 6]: < 0.05 µM; EC50 [4, 7]: < 0.05 µM; EC50 [5]: < 0.05 µM
CN[C@H]1CC[C@@H](N(Cc2cc(-c3ccc(C(C)=O)cc3)ccc2OC)C(=O)c2sc3ccccc3c2Cl)CC1 [Compound 303, 3-Chloro-benzo[b]thiophene-2-carboxylic acid (4′-acetyl-4-methoxy-biphenyl-3-ylmethyl)-(4-methylamino-cyclohexyl)-amide hydrochloride]	–	–	EC50 [2]: < 0.05 µM; EC50 [3, 6]: < 0.05 µM; EC50 [4, 7]: < 0.05 µM; EC50 [5]: < 0.05 µM
CN[C@H]1CC[C@@H](N(Cc2cc(-c3cccc(SC)c3)ccc2OC)C(=O)c2sc3c(F)ccc(F)c3c2Cl)CC1 [Compound 372, 3-Chloro-4,7-difluoro-benzo[b]thiophene-2-carboxylic acid (4-methoxy-3′-methylsulfanyl-biphenyl-3-ylmethyl)-(4-methylamino-cyclohexyl)-amide hydrochloride]	–	–	EC50 [3, 8]: < 0.05 µM; EC50 [4, 9]: < 0.05 µM
CN[C@H]1CC[C@@H](N(Cc2cc(-c3ccc(SC)cc3)ccc2OC)C(=O)c2sc3c(F)ccc(F)c3c2Cl)CC1 [Compound 373, 3-Chloro-4,7-difluoro-benzo[b]thiophene-2-carboxylic acid (4-methoxy-4′-methylsulfanyl-biphenyl-3-ylmethyl)-(4-methylamino-cyclohexyl)-amide hydrochloride]	–	–	EC50 [3, 8]: < 0.05 µM; EC50 [4, 9]: < 0.05 µM
CN[C@H]1CC[C@@H](N(Cc2cc(-c3cc[n+]([O-])cc3)ccc2OC)C(=O)c2sc3c(F)ccc(F)c3c2Cl)CC1 [Compound 374, 4-(3-((3-chloro-4,7-difluoro-N-((1s,4s)-4-(methylamino)cyclohexyl)benzo[b]thiophene-2-carboxamido)methyl)-4-methoxyphenyl)pyridine 1-oxide]	–	–	EC50 [3, 8]: < 0.05 µM; EC50 [4, 9]: < 0.05 µM
CN[C@H]1CC[C@@H](N(Cc2cc(-c3cccc([S+](C)[O-])c3)ccc2OC)C(=O)c2sc3c(F)ccc(F)c3c2Cl)CC1 (some centres unmarked) [Compound 376, 3-Chloro-4,7-difluoro-benzo[b]thiophene-2-carboxylic acid (3′-methanesulfinyl-4-methoxy-biphenyl-3-ylmethyl)-(4-methylamino-cyclohexyl)-amide trifluoroacetate]	–	–	EC50 [3, 8]: < 0.05 µM; EC50 [4, 9]: < 0.05 µM
CN[C@H]1CC[C@@H](N(Cc2cc(-c3ccc([S+](C)[O-])cc3)ccc2OC)C(=O)c2sc3c(F)ccc(F)c3c2Cl)CC1 (some centres unmarked) [Compound 377, 3-Chloro-4,7-difluoro-benzo[b]thiophene-2-carboxylic acid (4′-methanesulfinyl-4-methoxy-biphenyl-3-ylmethyl)-(4-methylamino-cyclohexyl)-amide trifluoroacetate]	–	–	EC50 [3, 8]: < 0.05 µM; EC50 [4, 9]: < 0.05 µM
COc1ccc(-c2cc[n+](C)cc2)cc1CN(C(=O)c1sc2c(F)ccc(F)c2c1Cl)[C@H]1CC[C@@H](N)CC1 [Compound 418]	–	–	EC50 ([3]; S12 mouse embryonic mesenchymal cells, Table 3, read-out: S12 Avg. EC50): 1 to 2.5 µM; EC50 ([4]; Daoy human cells, gli-luciferase reporter, Table 3, read-out: Daoy Avg. EC50): < 0.05 µM
